Laboratory results from patent publication US20130157973A1, “PHARMACEUTICAL COMPOSITIONS AND METHODS FOR TREATING GASTROINTESTINAL INFECTIONS AND DISORDERS” (priority 2011, published 2013).
Read-outs that look alike come from different tables or passages of the source.

What was measured:
[1] = Phase IIa studies in chronic HCV subjects: safety, neutrophil and lymphocyte counts, liver enzymes; format: in vivo, human; details: for proportion of subjects with AST elevations / proportion of subjects with ALT elevations: French study, 0.02 mg/kg group
Description: Single center study (France): 6 subjects received 0.01 mg/kg, 11 received 0.02 mg/kg and 6 received placebo.
Exclusion criteria included clinically meaningful cirrhosis on prior liver biopsy (U.S. study), positive serology for possible autoimmune hepatitis (ANA˜1:640, ASMA>1:320, ALKM antibody>1:320), hepatocellular neoplasia, anemia (<12 g/dL for men, <11 for women), thrombocytopenia (<90,000/μL), leukopenia (<2500 cells/μL), neutropenia (<1500 cells/μL, U.S. study), ALT>1000 U/L (French study) or aspartate aminotransferase (AST) or ALT>500 U/L (U.S. study), bilirubin>1 mg/dL, decompensated liver disease, other liver diseases, positive serology for HIV, positive HBsAg, prior organ transplantation, significant psychiatric disease, alcohol or drug abuse within 12 months, systemic immunomodulatory or investigational therapy within 3 months, and significant cardiac, pulmonary, systemic inflammatory or thyroid disease.
In the U.S. study, subjects were assigned centrally across centers. Active to placebo assignment was 3:1 for each cohort. Sample sizes were not prospectively powered.
All subjects were to receive study drug two times per week for 4 weeks. Subjects self-administered study drug at home except on study visits with pharmacokinetic and pharmacodynamic sampling where it was administered in the clinic. […] In the U.S. study, subjects received 0.01 mg/kg of resiquimod.
(§1) Serum IL-6, IL-1RA, TNF-α and IFN-γ were measured by enzyme-linked immunosorbent assay (Immunotech, Cedex, France) and neopterin by immunoenzymatic assay (Immunotech, Cedex, France). Serum type I IFN levels were determined by bioassay. Serum 2′,5′ oligoadenylate synthetase (2′5′ AS) was measured by radioimmunoassay (Eiken Chemical Co. Ltd., Tokyo, Japan). Serum IL-12 p40 was measured by enzyme-linked immunosorbent assay (R&D Systems, Minneapolis, Minn.) Immunophenotyping of T lymphocytes in the U.S. study was performed at NGI.

[2] = Placebo-controlled single and multiple administration tolerability studies in healthy adults; format: in vivo; details: single administration study in 48 healthy adults, up to 0.05 mg/kg
IFN-α = assay: Phase IIa studies: serum type I IFN levels by bioassay; format: in vivo, human
Description: as §1, with “Samples for cytokines were obtained at 0, 2, 4, 6, 8, 12 and 24 h after the first dose, prior to dosing at days 8, 15, 22 or 25 (see above regarding pharmacokinetics) and day 29. Serum IL-6,” for “Serum IL-6,”

serum HCV RNA = assay: Phase IIa studies: serum HCV RNA by quantitative polymerase chain reaction; format: in vivo, hepatitis C virus
Description: Two randomized, double-blind phase IIa studies of Compound B administered two times per week for 4 weeks. Multicenter study (U.S.): 12 subjects received Compound B 0.01 mg/kg and 4 received placebo. Single center study (France): 6 subjects received 0.01 mg/kg, 11 received 0.02 mg/kg and 6 received placebo.
Serum HCV RNA was measured by quantitative polymerase chain reaction (NGI). Subjects were categorized as responders (reduction from baseline of ˜2 logs) or non-responders at the end-of-treatment visit (day 29), and at the last follow-up visit (day 113 U.S. study, and day 57 French study).

[3] = Single-dose pharmacokinetics of Compound B, fasted and fed cohorts; format: in vivo, human; details: for Cmax / AUC(0-inf) / half-life / Tmax: human, plasma, oral; for Cmax: read-out: Cmax Mean (% CV); for AUC(0-inf): read-out: AUCinf Mean (% CV); for Tmax: read-out: Tmax Median (Q1, Q3)
Description: Table 1 and Table 2 present the PK parameters of Compound B following the administration of a single dose of Compound B in the fasted cohorts and fed cohorts, respectively. Mean maximal plasma concentration values (Cmax) were higher with increasing dose in the fasted treatment groups. Mean maximal plasma concentration values were lower when Compound B (8 mg) was administered with moderate- or high-fat meal or following a high fat-meal than when Compound B was administered under fasting conditions.

[4] = of the 11 subjects with at least a 1-log reduction at any time
[5] = 0.3 mg, single dose 0.3 mg, Cohort 1, fasted
[6] = 1 mg, single dose 1 mg, Cohort 2, fasted
[7] = 2 mg, single dose 2 mg, Cohort 3, fasted
[8] = 4 mg, single dose 4 mg, Cohort 4, fasted
[9] = 6 mg, single dose 6 mg, Cohort 5, fasted
[10] = 8 mg, single dose 8 mg post high-fat meal (4 hours), Cohort 9
[11] = 8 mg, single dose 8 mg with a high-fat meal, IFE Cohort
[12] = 8 mg, single dose 8 mg with a moderate-fat meal, Cohort 8
[13] = 8 mg, single dose 8 mg, Cohort 6, fasted
[14] = 12 mg, single dose 12 mg, Cohort 7, fasted

CCCCOc1nc(N)c2c(n1)N(Cc1cccc(CN3CCCC3)c1)CC(=O)N2 [Compound B, 4-amino-2-butoxy-8-(3-(pyrrolidin-1-ylmethyl)benzyl)-7,8-dihydropteridin-6(5H)-one]
proportion of subjects with AST elevations ([1]; day 1 (6/11)): 55%
proportion of subjects with ALT elevations ([1]; day 1 (9/11)): 82%
proportion of subjects with AST elevations ([1]; day 29 (1/9)): 11%
proportion of subjects with ALT elevations ([1]; day 29 (5/9)): 56%
ALT and AST levels ([1]; U.S. study, 0.01 mg/kg): Neither ALT nor AST levels appeared to be affected
changes in physical examinations ([1]; both studies): no clinically meaningful changes
Clinically relevant changes in CD4+ lymphocyte counts or CD4+/CD8+ lymphocyte ratios ([1]; human, in vivo): not observed
adverse effects ([1]; oral 0.02 mg/kg): adverse effects similar to interferon-alpha
maximum tolerated oral dose [2]: 0.03 mg/kg
IFN-α Rmax post-dose 1 of individual subject (IFN-α; 0.02 mg/kg subject who discontinued treatment for severe grade flu-like symptoms): 3946 IU/mL
IFN-α Rmax post-dose 1 of individual subject (IFN-α; 0.02 mg/kg subject who discontinued treatment for severe grade lymphopenia): 15,557 IU/mL
subjects with at least a 1-log reduction in HCV levels at any time during the study (serum HCV RNA; 0.01 mg/kg group): five
subjects with at least a 1-log reduction in HCV levels at any time during the study (serum HCV RNA; 0.02 mg/kg group): six
subjects with maximal reduction in viral levels of at least 1-log (serum HCV RNA; 0.02 mg/kg group): Two
subjects with maximal reduction in viral levels of at least 2-logs (serum HCV RNA; 0.02 mg/kg group): three
subjects with maximal reduction in viral levels of at least 3-logs (serum HCV RNA; 0.02 mg/kg group): one
responders per protocol (2 log reduction) at end-of-treatment visit (serum HCV RNA; 0.02 mg/kg, day 29, not sustained on follow-up): one
subjects whose HCV Rmax occurred at day 29 or after (serum HCV RNA; [4]): 5 subjects
subjects whose HCV Rmax occurred within 48 h after dose 1 (serum HCV RNA; [4]): 6 subjects
effect on viral levels (serum HCV RNA; oral 0.02 mg/kg): transiently reduced viral levels
serum HCV RNA levels after the first dose (serum HCV RNA; peaking at about 24 h, trending toward baseline by 48 h): dose-dependent decrease
Mean maximal plasma concentration fed vs fasting ([3]; 8 mg with moderate- or high-fat meal or following a high-fat meal, vs fasting conditions): lower
Cmax [3, 5]: 0.184 ng/mL
AUC(0-inf) ([3]; 0.3 mg, single dose 0.3 mg, Cohort 1, fasted, limited terminal phase data, interpret with caution): 2.97 ng·h/mL
half-life ([3]; 0.3 mg, single dose 0.3 mg, Cohort 1, fasted, plasma measured only to 24 hours, interpret with caution, read-out: T½ Median (Q1, Q3) (converted)): 10.4 h
Tmax [3, 5]: 3 h
Cmax [3, 6]: 0.44 ng/mL
AUC(0-inf) [3, 6]: 9.23 ng·h/mL
Tmax [3, 6]: 3 h
half-life ([3]; 1 mg, single dose 1 mg, Cohort 2, fasted, read-out: T½ Median (Q1, Q3) (converted)): 26.9 h
Cmax [3, 7]: 0.633 ng/mL
AUC(0-inf) [3, 7]: 11.3 ng·h/mL
Tmax [3, 7]: 6 h
half-life ([3]; 2 mg, single dose 2 mg, Cohort 3, fasted, read-out: T½ Median (Q1, Q3) (converted)): 24.3 h
Cmax [3, 8]: 2.93 ng/mL
AUC(0-inf) [3, 8]: 57.2 ng·h/mL
Tmax [3, 8]: 4 h
half-life ([3]; 4 mg, single dose 4 mg, Cohort 4, fasted, read-out: T½ Median (Q1, Q3) (converted)): 17.2 h
Cmax [3, 9]: 7.26 ng/mL
AUC(0-inf) [3, 9]: 76.9 ng·h/mL
Tmax [3, 9]: 2.5 h
half-life ([3]; 6 mg, single dose 6 mg, Cohort 5, fasted, read-out: T½ Median (Q1, Q3) (converted)): 14.7 h
AUC(0-inf) [3, 10]: 79.5 ng·h/mL
Cmax [3, 10]: 4.53 ng/mL
Tmax [3, 10]: 5 h
half-life ([3]; 8 mg, single dose 8 mg post high-fat meal (4 hours), Cohort 9, read-out: T½ Median (Q1, Q3) (converted)): 20.5 h
AUC(0-inf) [3, 11]: 71.4 ng·h/mL
Cmax [3, 11]: 5.24 ng/mL
Tmax [3, 11]: 3 h
half-life ([3]; 8 mg, single dose 8 mg with a high-fat meal, IFE Cohort, read-out: T½ Median (Q1, Q3) (converted)): 23.6 h
AUC(0-inf) [3, 12]: 51.1 ng·h/mL
Cmax [3, 12]: 2.04 ng/mL
Tmax [3, 12]: 2 h
half-life ([3]; 8 mg, single dose 8 mg with a moderate-fat meal, Cohort 8, read-out: T½ Median (Q1, Q3) (converted)): 21.6 h
Cmax [3, 13]: 8.34 ng/mL
AUC(0-inf) [3, 13]: 109 ng·h/mL
Tmax [3, 13]: 2.51 h
half-life ([3]; 8 mg, single dose 8 mg, Cohort 6, fasted, read-out: T½ Median (Q1, Q3) (converted)): 19.5 h
Cmax [3, 14]: 12 ng/mL
AUC(0-inf) [3, 14]: 140 ng·h/mL
Tmax [3, 14]: 1.51 h
half-life ([3]; 12 mg, single dose 12 mg, Cohort 7, fasted, read-out: T½ Median (Q1, Q3) (converted)): 16.3 h
half-life ([3]; all groups except the 0.3-mg group, read-out: Median terminal half-life values across groups): 14.7 to 26.9 h
